Reference: patent US20260240820A1, “METHOD FOR CONTROLLING MEMBRANE POTENTIAL-DEPENDENT ION CHANNEL THROUGH TYPE I TASTE RECEPTORS (T1RS)” (ION CHAT RESEARCH CORPORATE, priority 2022, published 2026)
“Also recorded” adds a separate entry of the source. Read-outs that look alike come from different tables or passages of the source.

Columns and labels:
HEK Nav1.5 cells = assay: GFP-Tubulin / GFP-Actin cytoskeleton observation in HEK Nav1.5 cells; assay type: cell-based, human
Source text: To observe the impact of cinacalcet and Aβ1-42 peptide on microfilament (actin) fiber structures, we labeled cells with GFP-Actin (FIG. 34). […] This experimental approach, using GFP-Tubulin, GFP-Actin, or other fluorescent proteins to label microtubules and microfilaments, can be used to screen compounds that regulate the activity of ion channels and neuronal function-controlling proteins. Additionally, simultaneous labeling of tubulin and actin can be achieved using fluorescent antibodies or phalloidin after cell fixation.

Nav1.5 = assay: Patch-clamp (voltage clamp) recording of VGSC current in HEK cells stably expressing Nav1.5; conditions: for IC50: read-out: IC50 (VGSC inhibition)
[1] = when used for treatment of hypercalcemia; cited from earlier work
VGSC = assay: Patch-clamp recording of VGSC current, cell type not specified or several cell types (summary statements); assay type: cell-based, human
[2] = tested on: VGSC of SH-SY5Y cells (Nav1.7, Nav1.2, Nav1.3); assay: Patch-clamp recording of VGSC current in differentiated SH-SY5Y cells; assay type: cell-based, human; conditions: 5 μM
Source text: Furthermore, the inventors focused on the relationship between taste receptors, particularly the sweet or umami receptors containing the T1R3 subunit, which are widely expressed in the brain and nervous system, including the hippocampus and cortex. They used human neuroblastoma cells (SH-SY5Y) that functionally express Nav1.2, Nav1.3, and Nav1.7 (as reported in non-patent literature 8), as well as HEK cells stably expressing Nav1.5 (with endogenous expression of T1R1, T1R2, and T1R3). They observed the effects of taste stimuli on sodium channel activation. By reducing the expression of T1R1 and T1R3 genes using silencing vectors, they confirmed that the effects on sodium channel currents induced by taste stimuli act through taste receptor GPCRs.
The SH-SY5Y cell culture medium was prepared by mixing DMEM (Sigma-Aldrich) and F-12 (Sigma-Aldrich) in equal proportions. To induce neuronal-like differentiation, the medium contained 1% FBS (BioWest), 5% 40 mM L-Glutamine (Fuji Film), and 1% MEM non-essential amino acids (Wako Pure Chemical Industries). During differentiation, SH-SY5Y cells were cultured for at least 5 days with the addition of 10 μM/ml retinoic acid (Fuji Film). In this document, “SH-SY5Y cells” refer to the SH-SY5Y cell line differentiated into neuronal-like cells.

[3] = tested on: Nav1.5 in T1R3-silenced HEK cells; assay: VGSC current in HEK Nav1.5 cells with silenced T1R3; assay type: cell-based, human; conditions: for Effect on VGSC current: 20 μM (b565)
Procedure, shortened: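 VGSC currents were recorded in HEK-Nav1.5 cells with T1R3 knocked down by a miRNA expression vector, stimulated every 8 s. The effect of Aβ25-35 peptide was compared with control HEK-Nav1.5 cells.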

[4] = tested on: voltage-dependent potassium channel current of SH-SY5Y cells; assay: Voltage clamp recording of outward potassium current in SH-SY5Y cells; assay type: cell-based, human; conditions: 5 μM
Source text: The inward current represents the transient peak observed immediately after stimulation, while the outward current measures the average value during the last 50 ms of rectangular pulse stimulation.

SH-SY5Y cells = assay: Action potentials of differentiated SH-SY5Y cells (current clamp, NanoCharge method); assay type: cell-based, human; conditions: pH6; current clamp
Procedure: Next, using the current-clamp mode, we applied current stimulation and recorded action potentials from differentiated SH-SY5Y cells (FIG. 5, from the lower to the upper part of the figure, rectangular wave current stimulation was applied. The current strengths were 6, 8, 10, and 12 pA from the bottom). Before the application of Aβ25-35 peptide, action potentials were not induced at stimulation currents of 6 pA and 8 pA, but action potentials were recorded at stronger stimulation currents (10 pA and 12 pA).
By using magnetic conductive nanoparticles as intracellular electrodes for measuring the neuronal action potentials of differentiated SH-SY5Y cells, and combining this with a capacitive potential detection device to measure changes in intracellular potentials, the spontaneous action potentials of these cells were measured. Specifically, 6.25 nM of the T1R3 agonist Aβ25-35 peptide was added to 400 μl of SH-SY5Y cell culture medium, and the spontaneous action potentials before and after the addition of Aβ25-35 peptide were measured to observe the changes.
This membrane potential recording method focuses on the magnetic conductive nanoparticles penetrating the cell membrane, the cover glass on which the cells are seeded, and the electrode placed below the cover glass forming a capacitor. The charge (Q) charged to this capacitor is recorded as the membrane potential in terms of charge rather than voltage changes. Since the charge (Q) is obtained from Q=CV, where C is the capacitance and V is the potential, the charge changes measured here are influenced by the capacitor (C) (FIG. 43).

T1R2/T1R3 = molecular target: T1, T1R2/T1R3 (Homo sapiens, UniProt Q7RTX0+Q8TE23); conditions: Mailliet et al. (2009); read-out: IC50 for inhibition of the sucralose response of the sweet receptor (calcium imaging); cited from earlier work
T1 construct: host or cells: HEK cells overexpressing T1R2, T1R3 and G16-gust44 (Mailliet et al. 2009; Masuda et al. 2012)
T1 sequence (Q8TE23 20-839): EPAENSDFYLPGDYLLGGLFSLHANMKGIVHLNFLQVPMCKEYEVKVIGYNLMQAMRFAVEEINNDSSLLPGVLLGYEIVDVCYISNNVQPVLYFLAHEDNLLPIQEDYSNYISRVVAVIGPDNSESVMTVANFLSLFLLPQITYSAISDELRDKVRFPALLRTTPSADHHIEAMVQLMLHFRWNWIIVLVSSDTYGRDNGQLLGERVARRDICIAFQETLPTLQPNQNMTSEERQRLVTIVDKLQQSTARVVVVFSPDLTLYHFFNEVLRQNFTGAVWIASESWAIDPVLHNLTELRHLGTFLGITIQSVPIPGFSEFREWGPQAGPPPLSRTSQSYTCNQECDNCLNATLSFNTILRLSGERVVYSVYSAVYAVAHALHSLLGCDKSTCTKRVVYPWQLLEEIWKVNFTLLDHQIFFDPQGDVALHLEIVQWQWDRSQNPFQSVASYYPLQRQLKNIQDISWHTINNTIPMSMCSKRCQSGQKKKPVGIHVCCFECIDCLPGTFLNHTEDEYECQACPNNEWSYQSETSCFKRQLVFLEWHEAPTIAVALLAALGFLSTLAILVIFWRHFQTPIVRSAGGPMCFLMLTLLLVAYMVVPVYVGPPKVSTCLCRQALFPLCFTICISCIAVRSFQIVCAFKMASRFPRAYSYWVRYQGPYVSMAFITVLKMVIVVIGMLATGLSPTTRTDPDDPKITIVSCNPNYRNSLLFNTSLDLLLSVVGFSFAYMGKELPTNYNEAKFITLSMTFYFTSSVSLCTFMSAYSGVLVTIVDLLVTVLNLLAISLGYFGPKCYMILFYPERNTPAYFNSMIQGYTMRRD
T1 sequence (Q7RTX0 21-852): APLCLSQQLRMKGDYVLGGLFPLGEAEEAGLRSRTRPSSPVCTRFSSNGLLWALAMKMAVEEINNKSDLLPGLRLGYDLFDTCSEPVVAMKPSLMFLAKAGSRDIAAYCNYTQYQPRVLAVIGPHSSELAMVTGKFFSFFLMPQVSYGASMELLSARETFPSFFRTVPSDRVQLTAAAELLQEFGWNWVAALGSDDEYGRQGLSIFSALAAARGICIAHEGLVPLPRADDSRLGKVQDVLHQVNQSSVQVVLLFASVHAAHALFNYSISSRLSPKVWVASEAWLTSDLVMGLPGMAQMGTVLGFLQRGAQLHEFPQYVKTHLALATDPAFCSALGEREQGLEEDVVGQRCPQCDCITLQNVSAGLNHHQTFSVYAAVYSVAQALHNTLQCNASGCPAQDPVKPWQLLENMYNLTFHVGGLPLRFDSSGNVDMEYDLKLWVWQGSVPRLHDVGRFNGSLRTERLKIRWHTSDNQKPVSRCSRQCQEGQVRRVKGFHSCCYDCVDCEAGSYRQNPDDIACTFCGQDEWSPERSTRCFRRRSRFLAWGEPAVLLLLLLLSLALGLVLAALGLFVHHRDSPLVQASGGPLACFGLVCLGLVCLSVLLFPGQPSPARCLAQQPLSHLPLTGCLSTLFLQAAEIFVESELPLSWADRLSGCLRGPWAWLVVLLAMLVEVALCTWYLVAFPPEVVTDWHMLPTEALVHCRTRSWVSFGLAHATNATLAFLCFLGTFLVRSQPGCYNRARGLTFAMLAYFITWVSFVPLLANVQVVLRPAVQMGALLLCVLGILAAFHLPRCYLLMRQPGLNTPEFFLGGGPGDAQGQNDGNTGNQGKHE

In the case of `C[C@@H](NCCCc1cccc(C(F)(F)F)c1)c1cccc2ccccc12` [Cinacalcet], the “Microfilament structure (GFP-Actin)” value (HEK Nav1.5 cells) is reported as “condensed GFP-Actin structures”, the “Effect on VGSC (Na+) current under acidic conditions” value (Nav1.5; 5 μM, pH 6) is reported as “gradually inhibited; also recorded: exhibited VGSC inhibition” and the “Effect on VGSC currents” value (Nav1.5; 20 μM, control HEK Nav1.5 cells) is reported as “completely inhibits VGSC currents”. For the same molecule, the “Effect on leak (baseline) current” value (Nav1.5; when VGSC inhibition nearly complete) was “reduced leak currents”, the Plasma concentration [1] was 0.05 µM and the “Effects on VGSCs” value (VGSC) was “Inhibition of VGSCs”. The “Effect on VGSC activity” value (VGSC; 5 μM) was “completely inhibits VGSC activity”, the “Inhibitory effect on VGSC when tubulin polymerization is inhibited by Colchicine” value (VGSC; Colchicine treated cells) was “still inhibited VGSC currents” and the “Inhibitory effect on VGSC when actin polymerization is inhibited by Cytochalasin D” value (VGSC; Cytochalasin D treated cells) was “inhibited by cytochalasin D treatment”. The “Required concentration for VGSC inhibition” value (VGSC; HEK Nav1.5 and SH-SY5Y) was 5 µM, the “Effects on VGSCs” value (VGSC; listed as cinacalcet) was “inhibited human VGSC” and the “Effect on inward VGSC current” value [2] was “inhibited”. For the same molecule, the “Effect on inward VGSC current” value ([2]; listed as cinacalcet) was “complete inhibition of both currents”, the “Effect on VGSC current” value [3] was “no change in VGSC current was observed” and the “Effect on VGSC current” value ([3]; listed as cinacalcet) was “no observable effect”. The “Effect on VGSC in T1R3-silenced cells” value ([3]; listed as cinacalcet) was “no VGSC inhibitory effect was observed; also recorded: T1R3 silencing nullifies ab25-35's”, the “Effect on outward potassium current” value [4] was “inhibited” and the “Effect on outward potassium current” value ([4]; listed as cinacalcet) was “complete inhibition of both currents”. For the same molecule, the “Effect on VGSC-dependent action potentials under acidic conditions” value (SH-SY5Y cells) was “inhibited VGSC-dependent action potentials”.

`CCOC(=O)C(C)(C)Oc1ccc(Cl)cc1` [Clofibrate] gave an IC50 (Nav1.5; prepulse −80 mV) of 580 µM, an IC50 (Nav1.5; prepulse −100 mV) of 1200 µM and an IC50 (Nav1.5; prepulse −120 mV) of 1040 µM. The IC50 (T1R2/T1R3) was 28 µM.
